Source: ChEMBL document CHEMBL5241104, “Reactive metabolites of the anticonvulsant drugs and approaches to minimize the adverse drug reaction” (Eur J Med Chem, 2021)
pIC50: −log10 of the molar value.

Assays:
Rattus norvegicus [1] = assay: Anticonvulsant activity in rat brain assessed as increase in GABA level at 100 mg/kg,ip administrated for 2 hrs by spectrophotometric method; type: functional
[2] = Hepatotoxicity in rat assessed as total albumin level at 100 mg/kg,ip administrated for 2 hrs by spectrophotometric method; type: toxicity, organism-based; conditions: in vivo
[3] = Hepatotoxicity in rat assessed as total protein level at 100 mg/kg,ip administrated for 2 hrs by spectrophotometric method; type: toxicity, organism-based; conditions: in vivo
Mus musculus [4] = assay: Anticonvulsant activity in mouse assessed as protection against 6-Hz induced seizure at ip administration upto 2 hrs; type: functional
Mus musculus [5] = assay: Anticonvulsant activity in Albino Swiss CD-1 mouse assessed as protection against maximal electroshock induced seizure at 100 mg/kg,ip administration; type: functional
Mus musculus [6] = assay: Anticonvulsant activity in Albino Swiss CD-1 mouse assessed as protection against Sc-Met induced seizure at 100 mg/kg,ip administration; type: functional
Rattus norvegicus [7] = assay: Anticonvulsant activity in Wistar rat assessed as protection against maximal electroshock induced seizure at po administration for 2 hrs; type: functional
Rattus norvegicus [8] = assay: Anticonvulsant activity in Wistar rat assessed as protection against maximal electroshock induced seizure at po administration for 4 hrs; type: functional
Rattus norvegicus [9] = assay: Anticonvulsant activity in Wistar rat assessed as protection against maximal electroshock induced seizure at po administration for 8 hrs; type: functional
[10] = Protective index, ratio of TD50 for toxicity in Wistar rat assessed as median toxicity dose at po administration for 2 hrs by rotorod test to ED50 for anticonvulsant activity in Wistar rat assessed as protection against maximal electroshock induced seizure at po administration for 2 hrs; type: organism-based; conditions: in vivo, read-out: Ratio TD50/ED50
[11] = Protective index, ratio of TD50 for toxicity in Wistar rat assessed as median toxicity dose at po administration for 4 hrs by rotorod test to ED50 for anticonvulsant activity in Wistar rat assessed as protection against maximal electroshock induced seizure at po administration for 4 hrs; type: organism-based; conditions: in vivo, read-out: Ratio TD50/ED50
[12] = Protective index, ratio of TD50 for toxicity in Wistar rat assessed as median toxicity dose at po administration for 8 hrs by rotorod test to ED50 for anticonvulsant activity in Wistar rat assessed as protection against maximal electroshock induced seizure at po administration for 8 hrs; type: organism-based; conditions: in vivo, read-out: Ratio TD50/ED50
[13] = Displacement of 3[H]BTX from rat brain membrane voltage-sensitive sodium channel incubated for 1.5 hrs by scintillation counting analysis; type: cell membranes
[14] = Toxicity in Swiss albino mouse assessed as median toxicity dose at ip administration; type: organism-based; conditions: in vivo
Mus musculus [15] = assay: Anticonvulsant activity in Swiss albino mouse assessed as protection against PTZ induced seizure at ip administration for 30 mins; type: functional; conditions: 0.5 h
Mus musculus [16] = assay: Anticonvulsant activity in mouse assessed as inhibition of maximal electroshock induced seizure at 200 mg/kg,po administration for 120 mins; type: functional; conditions: 2 h
Mus musculus [17] = assay: Anticonvulsant activity in mouse assessed as protection against maximal electroshock induced seizure at ip administration for 120 mins; type: functional; conditions: 2 h
Rattus norvegicus [18] = assay: Anticonvulsant activity in Sprague-Dawley rat assessed as protection against maximal electroshock induced seizure at ip administration for 0.25 hrs; type: functional
[19] = Protective index, ratio of TD50 for toxicity in Sprague-Dawley rat assessed as median toxicity dose at ip administration by rotorod test to ED50 for anticonvulsant activity in Sprague-Dawley rat assessed as protection against maximal electroshock induced seizure at ip administration; type: organism-based; conditions: in vivo, read-out: Ratio TD50/ED50
Mus musculus [20] = assay: Anticonvulsant activity in Albino mouse assessed as protection against Sc-PTZ induced seizure at ip administration for 30 mins; type: functional; conditions: 0.5 h
Rattus norvegicus [21] = assay: Anticonvulsant activity in Sprague-Dawley rat assessed as protection against maximal electroshock induced seizure at po administrated for 30 mins; type: functional; conditions: 0.5 h
Rattus norvegicus [22] = assay: Anticonvulsant activity in Sprague-Dawley rat assessed as protection against Sc-Met induced seizure at po administrated for 30 mins; type: functional; conditions: 0.5 h

**Q.** What does the source list for `Nc1ccc(Cl)cc1-c1n[nH]c(=O)n(-c2ccc(O)cc2)c1=O`?
**A.** Activity (Rattus norvegicus [1]): 87.4 mg; Activity [2]: 1.61 g/dL; Activity [3]: 4.78 g/dL

**Q.** For `CCCC(COC(=O)Nc1ccc(S(N)(=O)=O)cc1)C(C)CC` (configuration not stated), which ED50 (Mus musculus [4]) is on record?
**A.** The ED50 was 74 mg/kg.

**Q.** With `Cl.Cl.O=C1CC(c2ccccc2)(c2ccccc2)CN1CN1CCN(c2ccccc2)CC1` as the molecule, how does the Activity (Mus musculus [5]) read?
**A.** Its Activity is 25%.

**Q.** What about the Activity (Mus musculus [6]) of the same molecule?
**A.** The Activity was 25%.

**Q.** For `NC(=O)N1c2ccccc2C/C(=N/O)c2ccccc21`, which ED50 (Rattus norvegicus [7]) is on record?
**A.** Its ED50 is 12 mg/kg.

**Q.** And the ED50 (Rattus norvegicus [8])?
**A.** Its ED50 is 20 mg/kg.

**Q.** What about the ED50 (Rattus norvegicus [9]) of the same molecule?
**A.** Its ED50 is 17 mg/kg.

**Q.** What about the selectivity ratio at 2 h [10] of the same molecule?
**A.** Its selectivity ratio at 2 h is over 166.

**Q.** What about the selectivity ratio at 4 h [11] of the same molecule?
**A.** Its selectivity ratio at 4 h is over 100.

**Q.** And the selectivity ratio at 8 h [12]?
**A.** Its selectivity ratio at 8 h is over 117.

**Q.** And the pIC50 [13]?
**A.** Its pIC50 is 3.38.

**Q.** Which TD50 [14] does the source give for `CCCC(CCC)c1nnc(Nc2ccccc2)s1` here?
**A.** Its TD50 is 419 mg/kg.

**Q.** And the ED50 (Mus musculus [15])?
**A.** Its ED50 is 187 mg/kg.

**Q.** For `CC1(C)OCC(CO[S+](N)[O-])O1` (configuration not stated), which inhibition in vivo at 200 mg/kg (Mus musculus [16]) is on record?
**A.** Its inhibition in vivo at 200 mg/kg is at least 80%.

**Q.** What about the ED50 (Mus musculus [17]) of the same molecule?
**A.** Its ED50 is 105 mg/kg.

**Q.** Which ED50 (Rattus norvegicus [18]) does the source give for `CCCC(CCC)C(=O)NCCN(C)C` here?
**A.** The ED50 was 38.6 mg/kg.

**Q.** What about the selectivity ratio [19] of the same molecule?
**A.** Its selectivity ratio is 1.8.

**Q.** For `O=C1Nc2ccc(Cl)cc2C(c2ccccc2)=NC1/N=N/c1ccc([N+](=O)[O-])cc1` (configuration not stated), which Activity (Mus musculus [20]) is on record?
**A.** The Activity was 100%.

**Q.** Which ED50 (Rattus norvegicus [21]) does the source give for `Cc1cc(C(=O)Nc2c(C)cccc2C)no1` here?
**A.** Its ED50 is 5.5 mg/kg.

**Q.** What about the ED50 (Rattus norvegicus [22]) of the same molecule?
**A.** The ED50 was over 250 mg/kg.
